Results from US20160067193A1, “TOPICAL PTEROSTILBENE COMPOSITIONS FOR USE IN TREATING UV-INDUCED SKIN DAMAGE AND HYPERPLASIA” (The Regents of the University of California, priority 2014, published 2016).

Legend:
[1] = In vitro glucuronidation assay with pooled human liver microsomes; assay type: in vitro ADME; conditions: 100 μg pooled human liver microsomes (n=20), 500 μM compound, HPLC 308 nm
skin of SKH-1 mice [2] = assay: UV-B induced visual skin damage (redness) in SKH-1 mice, topical treatment; assay type: in vivo; conditions: topical 10 μmol/0.2 ml acetone/mouse 30 min before 180 mJ/cm^2 UV-B, every 2 days, 7 treatments, 5 mice per group
Description: FIG. 2 depicts the manner in which pterostilbene prevents UV-B induced damage in the skin of SKH-1 mice. […] Photographs show representative mice after 4th treatment.
(§1) UV-B exposure. Mice were exposed to a single dose of 180 mJ/cm^2 UVB radiation delivered via broadband UVB lamps (TL 40 W/12 RS; Philips) emitting 290-350 nm light with a peak emission at 312 nm. The irradiance was measured using a thermopile sensor (818P-001-12; Newport Inc., Irvine, Calif.) and power meter (842-PE; Newport Inc.).
Hairless SKH-1 mice were used to evaluate the effectiveness of pterostilbene at preventing UV-mediated damage in skin. The SKH-1 model is ideally suited for this purpose and is commonly used in preclinical studies and yielded valuable results. […] To ascertain if pterostilbene could also prevent those molecular alterations, we replicated these experiments. […] For all topical treatments 200 μl total volume was applied to the back skin of the mouse. For acetone group, 200 μl of acetone was applied. […] These mice were treated every 2 days for 7 total treatments. […] 24 hrs after last treatment, mice were euthanized, skin bi-fold measurements taken and back skins collected. As shown in FIGS. 2 and 3A-B, pterostilbene prevented UV-B-induced damage in mouse skin. […] This prevention of visual skin damage by pterostilbene correlated nicely with the prevention of DNA damage. […]

skin of SKH-1 mice [3] = assay: ELISA of UV-B induced DNA damage (CPD, 64 pp) in back skin DNA of SKH-1 mice; assay type: in vivo; conditions: topical 10 μmol/mouse before 180 mJ/cm^2 UV-B, 14-day experiment
From the text: FIGS. 3A and 3B depict the manner in which pterostilbene prevents UV-B induced DNA damage in the skin of SKH-1 mice, namely (A) CPD or (B) 64 pp DNA damage. ELISAs are shown for different arms of mouse study (Abs. 492 nm). * indicates p<0.01 as compared with vehicle (VEH). (RES) is resveratrol and (PTERO) is pterostilbene. NS is not significant.
as §1
ELISAS. DNA was isolated from snap frozen whole back skin using Qiagen QIAamp Blood mini kit (cat #51104) per manufacturer's instructions. ELISAs were performed on purified DNA with anti-CPD (clone TDM2) and anti-64 PP (clone 64M-2) antibodies using manufacturer's protocol and read using a DTX 800 Multimode Detector plate reader (Beckman Coulter) using standard settings from colorimetric detection. Four technical replicates were used and DNA-free wells were used as negative control.
Hairless SKH-1 mice were used to evaluate the effectiveness of pterostilbene at preventing UV-mediated damage in skin. The SKH-1 model is ideally suited for this purpose and is commonly used in preclinical studies and yielded valuable results. […] To ascertain if pterostilbene could also prevent those molecular alterations, we replicated these experiments. […] For all topical treatments 200 μl total volume was applied to the back skin of the mouse. For acetone group, 200 μl of acetone was applied. […] These mice were treated every 2 days for 7 total treatments. […] 24 hrs after last treatment, mice were euthanized, skin bi-fold measurements taken and back skins collected. As shown in FIGS. 2 and 3A-B, pterostilbene prevented UV-B-induced damage in mouse skin. […] This prevention of visual skin damage by pterostilbene correlated nicely with the prevention of DNA damage. […] Therefore pterostilbene prevented the 2 major types of UV-induced DNA damage (CPD and 64 pp) in the skin of SKH-1 mice.
DNA was obtained from the back skin of the SKH-1 mice from the experiment above after completion of the 14-day experiment. This DNA was then examined for DNA damage (both CPD and 64 pp) quantitatively using ELISA as previously described (Nishiwaki, Y., et al., “Trichothiodystrophy fibroblasts are deficient in the repair of ultraviolet-induced cyclobutane pyrimidine dimers and (6-4) photoproducts,” J. Invest. Dermatol. (2004) 122: 526-32). […] Quantification of DNA damage was measured at 492 nm by a spectrophotometer.

skin of SKH-1 mice [4] = assay: UV-B mediated bi-fold skin thickening and hyperplasia (H&E) in SKH-1 mice; assay type: in vivo; conditions: topical 10 μmol/mouse before 180 mJ/cm^2 UV-B
Description: FIG. 3C depicts the manner in which pterostilbene prevents UV-mediated bi-fold skin thickening. Bi-fold skin measurements (mm) were made using a digital caliper. At least three measurements for each mouse were taken along the back.
FIG. 4 depicts the manner in which pterostilbene prevents UV-mediated hyperplasia. H&E stains of back skins from mice in the indicated treatment arms (i.e., UV-B treated and control) were performed.
as §1
Hairless SKH-1 mice were used to evaluate the effectiveness of pterostilbene at preventing UV-mediated damage in skin. The SKH-1 model is ideally suited for this purpose and is commonly used in preclinical studies and yielded valuable results. […] To ascertain if pterostilbene could also prevent those molecular alterations, we replicated these experiments. […] For all topical treatments 200 μl total volume was applied to the back skin of the mouse. For acetone group, 200 μl of acetone was applied. […] These mice were treated every 2 days for 7 total treatments. […]

[5] = cited from earlier work; for bioavailability: in vivo
[6] = rats, relative to resveratrol; cited from earlier work
[7] = 125 mg orally twice a day, human; cited from earlier work
mouse epidermis = conditions: cited from earlier work

| SMILES | extent of metabolism (glucuronidation) after 2 hours [1] [%] | redness (sunburn) on back skin (skin of SKH-1 mice [2]) | 64 pp DNA damage by ELISA (Abs. 492 nm) (skin of SKH-1 mice [3]) | CPD DNA damage by ELISA (Abs. 492 nm) (skin of SKH-1 mice [3]) | UV-mediated bi-fold skin thickening (skin of SKH-1 mice [4]; digital caliper on dorsal skin, versus vehicle+UV-B) | UV-mediated hyperplasia (H&E stain of back tissue) (skin of SKH-1 mice [4]; formalin fixed paraffin embedded back tissue) | half life t1/2 in blood [5] | bioavailability [5] | increased bioavailability versus resveratrol [6] [fold] | overall blood pressure [7] | toxicity in patients [7] | COX-2 activation and TPA-induced tumor formation in mouse epidermis in vivo (mouse epidermis; 12-O-tetradecanoylphorbol-13-acetate (TPA), mouse epidermis in vivo) | potency versus resveratrol in inhibition of NF-KB, AP-1 and iNOS activation in mouse skin (mouse epidermis; mouse skin) |
| --- | --- | --- | --- | --- | --- | --- | --- | --- | --- | --- | --- | --- | --- |
| COc1cc(/C=C/c2ccc(O)cc2)cc(OC)c1 [pterostilbene, 3,5-dimethoxy-4′-hydroxy-trans-stilbene] | 20 | no redness was observed on any of the 5 mice | no 64 pps are observed | no CPDs were detected | prevented UV-mediated bi-fold skin thickening | prevented UV-mediated hyperplasia at the cellular level | about 105 minutes | orally bioavailable | 5 | reduction in overall blood pressure was observed | no toxicity reported | prevent COX-2 activation and 12-O-tetradecanoylphorbol-13-acetate (TPA)-induced tumor formation | equally or significantly more potent than resveratrol |
| Oc1ccc(C=Cc2cc(O)cc(O)c2)cc1 [resveratrol, reference compound] |  | able to limit the amount of redness observed on the back, it did not prevent it | no 64 pps are observed | quantitatively detected above background |  |  | about 14 minutes | poor bioavailability |  |  |  |  |  |
